According to ChEMBL document CHEMBL1201862, “PubChem BioAssay data set” (2004):
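Step 1: Grow cells in 96-well plates. Step 2: Expose to compound for 48 hours at 5 concentrations. Step 3: Interpolate endpoints linearly; if unreached, use highest concentration. GI50 is the concentration that inhibits growth by half.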 Activity calls are given as the source filed them. Rule as the data show it: active = GI50 up to about 1.1 µM and inactive = higher.

How the values were obtained:
Assay in all cases: inhibition of tumour cell growth, NCI panel, 48 h
IGROV-1 = system: IGROV-1
NCI-H460 = system: NCI-H460
ACHN = system: ACHN
SF-295 = system: SF-295
RPMI-8226 = system: RPMI-8226
UACC-257 = system: UACC-257
HCC 2998 = system: HCC 2998
LOX IMVI = system: LOX IMVI
OVCAR-3 = system: OVCAR-3
HCT-116 = system: HCT-116
M14 = system: M14
NCI-H23 = system: NCI-H23
Malme-3M = system: Malme-3M
SK-MEL-2 = system: SK-MEL-2
CCRF-CEM = system: CCRF-CEM
MDA-MB-231 = system: MDA-MB-231
PC-3 = system: PC-3
NCI/ADR-RES = system: NCI/ADR-RES
T47D = system: T47D
Hs-578T = system: Hs-578T

Measured: GI50

Cc1cc(=O)cc2sc3cc(Cl)ccc3nc1-2
inactive: IGROV-1 12.1 µM | NCI-H460 7.55 µM | ACHN 6.04 µM | SF-295 6.5 µM | RPMI-8226 5.87 µM | UACC-257 16.9 µM | HCC 2998 10.5 µM | LOX IMVI 11.9 µM | OVCAR-3 8.89 µM | HCT-116 9.42 µM | M14 4.4 µM | NCI-H23 13.7 µM | Malme-3M 11.5 µM | SK-MEL-2 7.01 µM | CCRF-CEM 1.39 µM

CN(C)CCCNc1ccnc2c([N+](=O)[O-])cccc12
inactive: NCI-H460 15.5 µM | ACHN 31.1 µM | SF-295 20.9 µM | RPMI-8226 21.6 µM | UACC-257 15.5 µM | HCC 2998 13.6 µM | LOX IMVI 19.5 µM | OVCAR-3 3.56 µM | HCT-116 15.3 µM | M14 29.2 µM | NCI-H23 14.6 µM | Malme-3M 2.52 µM | SK-MEL-2 > 10 µM | CCRF-CEM 34.3 µM

O=c1cc2ccccc2nn1-c1ccccc1Cl
inactive: IGROV-1 > 100 µM | NCI-H460 > 100 µM | ACHN > 100 µM | SF-295 > 100 µM | RPMI-8226 42.4 µM | UACC-257 > 100 µM | HCC 2998 > 100 µM | LOX IMVI > 100 µM | OVCAR-3 81.3 µM | HCT-116 74.5 µM | M14 > 100 µM | NCI-H23 67.9 µM | Malme-3M > 100 µM | SK-MEL-2 > 100 µM | CCRF-CEM 86.3 µM

O=C(CC1(O)C(=O)Nc2c(Cl)cc(Cl)cc21)c1ccc([N+](=O)[O-])cc1 (stereo not drawn)
inactive: IGROV-1 > 52.2 µM | NCI-H460 86.5 µM | ACHN 38.6 µM | SF-295 > 66.1 µM | RPMI-8226 26.9 µM | UACC-257 33.3 µM | HCC 2998 38 µM | LOX IMVI > 100 µM | OVCAR-3 33.7 µM | HCT-116 > 42.2 µM | M14 > 41.6 µM | NCI-H23 29.9 µM | Malme-3M > 43.9 µM | SK-MEL-2 > 56.4 µM | CCRF-CEM 26.7 µM

C=C(C(=O)OC)[C@H]1CC/C(C)=C/CC/C(C)=C/CC[C@@]2(C)O[C@@H]2C1
inactive: IGROV-1 16 µM | ACHN 19.8 µM | SF-295 11.5 µM | RPMI-8226 14.4 µM | UACC-257 23.8 µM | HCC 2998 16 µM | MDA-MB-231 15.9 µM | PC-3 18 µM | LOX IMVI 15.5 µM | OVCAR-3 17.7 µM | HCT-116 15.4 µM | M14 21.9 µM | NCI-H23 19.3 µM | Malme-3M 25.1 µM | SK-MEL-2 15.3 µM | NCI/ADR-RES 16.4 µM | T47D 16.3 µM | CCRF-CEM 13.1 µM

C[n+]1c2ccccc2c(/C=N\NS(=O)(=O)c2ccc(O)c(C(=O)O)c2)c2ccccc21
inactive: IGROV-1 58.5 µM | NCI-H460 36.2 µM | ACHN 80.2 µM | SF-295 > 100 µM | RPMI-8226 40.6 µM | UACC-257 > 10 µM | HCC 2998 > 100 µM | LOX IMVI 12.9 µM | OVCAR-3 49.1 µM | HCT-116 32.6 µM | M14 64.1 µM | NCI-H23 91.4 µM | Malme-3M > 100 µM | SK-MEL-2 63.5 µM | CCRF-CEM 21.8 µM

O=C1C2Cc3ccccc3CN2C(=O)N1CCN1CCOCC1 (stereo not drawn)
inactive: IGROV-1 > 100 µM | NCI-H460 > 100 µM | ACHN > 100 µM | SF-295 > 100 µM | RPMI-8226 > 100 µM | HCC 2998 > 100 µM | LOX IMVI > 100 µM | OVCAR-3 > 100 µM | M14 > 100 µM | NCI-H23 > 100 µM | Malme-3M > 100 µM | SK-MEL-2 > 100 µM | CCRF-CEM > 100 µM

O=c1[nH]c2ccc(CC(=S)N3CCN(c4ccccc4)CC3)cc2s1
inactive: IGROV-1 9.16 µM | NCI-H460 13 µM | ACHN 18 µM | Hs-578T 13.8 µM | SF-295 12.9 µM | RPMI-8226 12.7 µM | UACC-257 > 100 µM | MDA-MB-231 21.9 µM | PC-3 18.3 µM | LOX IMVI 67 µM | OVCAR-3 23.4 µM | HCT-116 33.9 µM | M14 23.1 µM | NCI-H23 20.7 µM | Malme-3M 13.5 µM | SK-MEL-2 82.2 µM | NCI/ADR-RES 13.2 µM | CCRF-CEM 68.9 µM

O=C(c1ccccc1)c1oc2ccc(Br)cc2c1-c1cnn(-c2ccccc2)c1
inactive: IGROV-1 > 100 µM | NCI-H460 > 100 µM | ACHN > 100 µM | SF-295 > 100 µM | RPMI-8226 54.7 µM | UACC-257 > 100 µM | HCC 2998 > 100 µM | LOX IMVI > 100 µM | OVCAR-3 > 100 µM | M14 > 100 µM | NCI-H23 > 100 µM | Malme-3M > 100 µM | SK-MEL-2 > 100 µM | CCRF-CEM > 100 µM

CCOC(=O)/C(=C\NC(N)=S)C(=O)c1ccccc1
inactive: IGROV-1 > 100 µM | NCI-H460 > 100 µM | ACHN > 100 µM | SF-295 > 100 µM | UACC-257 > 100 µM | HCC 2998 > 100 µM | MDA-MB-231 > 100 µM | LOX IMVI > 100 µM | OVCAR-3 > 100 µM | HCT-116 > 100 µM | M14 > 100 µM | NCI-H23 > 100 µM | SK-MEL-2 > 100 µM | NCI/ADR-RES > 100 µM | T47D > 100 µM

C=C(C)[C@@H]1CC[C@]2(CO)CC[C@]3(C)[C@H](CC[C@@H]4[C@@]5(C)CC[C@H](O)C(C)(C)[C@@H]5CC[C@]43C)[C@@H]12 [BETULIN]
inactive: IGROV-1 34.8 µM | NCI-H460 19.3 µM | ACHN 11.1 µM | SF-295 14 µM | UACC-257 23.3 µM | MDA-MB-231 33.3 µM | PC-3 30.2 µM | LOX IMVI 14.6 µM | OVCAR-3 28.2 µM | HCT-116 30.8 µM | M14 51.1 µM | NCI-H23 94.8 µM | Malme-3M 52.5 µM | NCI/ADR-RES 30.4 µM | T47D 61.4 µM | CCRF-CEM 34.5 µM

N=C(N)NS(=O)(=O)c1ccc(Nc2c3ccccc3nc3c(C(=O)Nc4ccc(S(N)(=O)=O)cc4)cccc23)cc1
inactive: IGROV-1 > 100 µM | NCI-H460 > 100 µM | ACHN > 100 µM | SF-295 > 100 µM | RPMI-8226 > 100 µM | UACC-257 > 100 µM | HCC 2998 55.5 µM | LOX IMVI 28.2 µM | OVCAR-3 36.8 µM | HCT-116 > 100 µM | M14 > 100 µM | NCI-H23 > 100 µM | Malme-3M > 100 µM | SK-MEL-2 42.5 µM | CCRF-CEM 71.3 µM
